Measured values taken from ChEMBL document CHEMBL1201862, “PubChem BioAssay data set” (2004).
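Tested at 5 concentrations; 48 h exposure; 96-well plates; endpoints linearly interpolated, else capped at highest concentration. The concentration for 50% growth inhibition is given as GI50.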 Activity calls are given as the source filed them. Rule as the data show it: active = GI50 up to about 1.1 µM and inactive = higher.

Assays:
Experiment in all cases: NCI anticancer screen, dose series, 48 h
NCI-H226 = tested on: NCI-H226
K562 = tested on: K562
T47D = tested on: T47D
DU-145 = tested on: DU-145
NCI-H460 = tested on: NCI-H460
SNB-75 = tested on: SNB-75
BT-549 = tested on: BT-549
SK-MEL-5 = tested on: SK-MEL-5
SF-268 = tested on: SF-268
OVCAR-5 = tested on: OVCAR-5
MCF7 = tested on: MCF7
KM12 = tested on: KM12
A498 = tested on: A498
MDA-MB-231 = tested on: MDA-MB-231
SK-OV-3 = tested on: SK-OV-3
A549 = tested on: A549
786-0 = tested on: 786-0
NCI-H522 = tested on: NCI-H522
SF-539 = tested on: SF-539
XF498 = tested on: XF498

Measured: GI50

Cc1ccc2ccccc2c1CSc1nc(N)nc2c1ncn2CC(C)C
inactive: NCI-H226 7.82 µM | K562 6.41 µM | T47D 5.05 µM | DU-145 82.4 µM | NCI-H460 14.2 µM | SNB-75 43.3 µM | BT-549 39.4 µM | SK-MEL-5 7.05 µM | SF-268 45.8 µM | OVCAR-5 96.2 µM | MCF7 12.9 µM | KM12 15.2 µM | A498 26.9 µM | MDA-MB-231 > 30.9 µM | SK-OV-3 30.5 µM | A549 10.9 µM | 786-0 21.4 µM | NCI-H522 8.71 µM | SF-539 7.78 µM

CC(=O)NC(CCCCNC(=O)NCCCl)C(=O)NCc1ccccc1 (stereo not drawn)
inactive: NCI-H226 > 100 µM | K562 > 100 µM | XF498 > 100 µM | NCI-H460 > 100 µM | SNB-75 > 100 µM | SK-MEL-5 > 100 µM | SF-268 > 100 µM | KM12 > 100 µM | A549 > 100 µM | 786-0 > 100 µM | NCI-H522 > 100 µM | SF-539 > 100 µM

Cc1cc2c(C)n(Cc3ccc(Cl)cc3Cl)nc2c(C#N)c1C
inactive: NCI-H226 > 42.2 µM | K562 > 100 µM | XF498 15.8 µM | NCI-H460 35.9 µM | SNB-75 7.94 µM | SK-MEL-5 85.3 µM | SF-268 32.3 µM | OVCAR-5 > 42.1 µM | KM12 > 100 µM | A498 65.8 µM | SK-OV-3 19.1 µM | A549 28.2 µM | 786-0 13.6 µM | NCI-H522 38.5 µM | SF-539 27.2 µM

C[C@@H]1CC[C@@]2(NC1)O[C@H]1C[C@H]3[C@@H]4CC[C@H]5C[C@@H](O)CC[C@]5(C)[C@H]4CC[C@]3(C)[C@H]1[C@@H]2C
inactive: NCI-H226 > 100 µM | K562 63.1 µM | T47D > 100 µM | DU-145 > 100 µM | NCI-H460 54.3 µM | SNB-75 61.9 µM | BT-549 > 100 µM | SK-MEL-5 42.1 µM | SF-268 > 100 µM | OVCAR-5 > 100 µM | MCF7 51.5 µM | KM12 27.3 µM | A498 68.7 µM | MDA-MB-231 38.1 µM | SK-OV-3 27.4 µM | A549 > 100 µM | 786-0 31.6 µM | NCI-H522 > 100 µM | SF-539 25.3 µM

O=C(Nc1ccc(Br)cc1)C(=O)C(C(=O)c1ccc(Cl)c(Cl)c1)C1OC(=O)c2ccccc21 (stereo not drawn)
inactive: NCI-H226 4.56 µM | K562 12.5 µM | XF498 13.8 µM | NCI-H460 15.1 µM | SNB-75 20.8 µM | SF-268 4.99 µM | OVCAR-5 17.3 µM | KM12 16.6 µM | A498 16.2 µM | SK-OV-3 35.1 µM | A549 16.4 µM | 786-0 15 µM | NCI-H522 18.3 µM

COc1ccc(OC)c(NC(=O)C(=O)C(C(C)=O)c2nc3ccc(Cl)cc3nc2O)c1 (stereo not drawn)
inactive: NCI-H226 > 50 µM | K562 > 50 µM | XF498 > 50 µM | NCI-H460 > 50 µM | SNB-75 > 50 µM | SK-MEL-5 > 50 µM | SF-268 > 50 µM | OVCAR-5 > 50 µM | KM12 > 50 µM | A498 > 50 µM | SK-OV-3 > 50 µM | A549 > 50 µM | 786-0 > 50 µM | SF-539 > 50 µM

[N-]=[N+]=Nc1nnc(CCCCc2nnc(N=[N+]=[N-])o2)o1
inactive: NCI-H226 > 100 µM | K562 > 100 µM | XF498 > 100 µM | NCI-H460 > 100 µM | SNB-75 > 100 µM | SK-MEL-5 > 100 µM | SF-268 > 100 µM | OVCAR-5 > 100 µM | KM12 91.4 µM | A498 > 100 µM | SK-OV-3 > 100 µM | A549 > 100 µM | 786-0 > 100 µM | NCI-H522 > 100 µM | SF-539 > 100 µM

COC(=O)C(=O)C(C(=O)C(=O)Nc1cc([N+](=O)[O-])ccc1[N+](=O)[O-])c1nc2ccc(C(=O)c3ccccc3)cc2nc1O (stereo not drawn)
inactive: NCI-H226 25.4 µM | K562 21.3 µM | XF498 3.36 µM | NCI-H460 35.4 µM | SK-MEL-5 18.3 µM | SF-268 47.6 µM | OVCAR-5 20.7 µM | KM12 28.9 µM | A498 20.9 µM | SK-OV-3 34.2 µM | A549 43.8 µM | 786-0 95.3 µM | NCI-H522 26.7 µM | SF-539 35.2 µM

Nc1nc2c(ncn2Cc2ccccc2CCO)c(=O)[nH]1
inactive: NCI-H226 41 µM | K562 > 100 µM | XF498 > 100 µM | NCI-H460 > 100 µM | SNB-75 > 100 µM | SK-MEL-5 > 100 µM | SF-268 > 100 µM | OVCAR-5 > 100 µM | KM12 > 100 µM | A498 > 100 µM | SK-OV-3 > 100 µM | A549 > 100 µM | 786-0 > 100 µM | NCI-H522 > 100 µM

Cc1csc2nc(-c3ccncc3)cn12
inactive: NCI-H226 > 100 µM | K562 > 44 µM | XF498 > 100 µM | NCI-H460 > 43.5 µM | SNB-75 > 100 µM | SK-MEL-5 > 100 µM | SF-268 > 69.7 µM | OVCAR-5 > 100 µM | KM12 > 100 µM | A498 > 100 µM | SK-OV-3 > 100 µM | A549 > 100 µM | 786-0 15.8 µM | NCI-H522 > 82.2 µM | SF-539 > 44 µM

O=C1NC(c2ccc(O)cc2)C2CCC1C2 (stereo not drawn)
inactive: NCI-H226 > 100 µM | K562 > 100 µM | XF498 > 100 µM | NCI-H460 > 100 µM | SNB-75 > 100 µM | SK-MEL-5 > 100 µM | SF-268 > 100 µM | OVCAR-5 > 100 µM | KM12 > 100 µM | A498 > 100 µM | SK-OV-3 > 100 µM | A549 > 100 µM | 786-0 > 100 µM | NCI-H522 > 100 µM

Nc1ncnc2c1sc(=S)n2-c1ccccc1
inactive: NCI-H226 > 100 µM | K562 > 100 µM | XF498 > 100 µM | NCI-H460 > 100 µM | SNB-75 > 100 µM | SK-MEL-5 > 100 µM | SF-268 > 100 µM | OVCAR-5 > 100 µM | KM12 > 100 µM | A498 82.8 µM | SK-OV-3 > 100 µM | A549 > 100 µM | 786-0 > 100 µM | NCI-H522 > 100 µM | SF-539 > 100 µM

N#Cc1cc([N+](=O)[O-])ccc1NC(=O)C(F)(F)F
inactive: NCI-H226 > 88.7 µM | K562 > 60.5 µM | XF498 > 100 µM | NCI-H460 > 42.3 µM | SNB-75 > 49.7 µM | SK-MEL-5 > 100 µM | SF-268 > 100 µM | OVCAR-5 > 100 µM | KM12 > 100 µM | A498 > 100 µM | SK-OV-3 > 100 µM | A549 > 74.3 µM | 786-0 > 49.7 µM | NCI-H522 > 58.5 µM | SF-539 > 100 µM

CCN(CC)c1ccc(/N=N/c2ccc(-c3nc4cccn(C)c-4n3)cc2)cc1
inactive: NCI-H226 19.8 µM | K562 2.86 µM | XF498 14.1 µM | NCI-H460 5.07 µM | SNB-75 17 µM | SK-MEL-5 4.8 µM | SF-268 13.2 µM | OVCAR-5 3.56 µM | KM12 8.95 µM | A498 14.9 µM | SK-OV-3 17.3 µM | A549 6.62 µM | 786-0 4.09 µM | NCI-H522 7.11 µM | SF-539 12.7 µM

COC1=CC(=O)c2c(O)c3c(c(O)c2C1=O)CC(C)(O)OC3 (stereo not drawn) [FUSARUBIN]
inactive: NCI-H226 15.7 µM | K562 3.44 µM | T47D 2.05 µM | DU-145 3.97 µM | NCI-H460 1.18 µM | SNB-75 16.1 µM | BT-549 6.44 µM | SK-MEL-5 1.16 µM | SF-268 3.85 µM | OVCAR-5 4.46 µM | MCF7 1.34 µM | KM12 3.1 µM | A498 9.66 µM | MDA-MB-231 2.84 µM | SK-OV-3 18.2 µM | A549 1.99 µM | 786-0 5.51 µM | NCI-H522 2.25 µM | SF-539 3.33 µM
